Read-outs that look alike come from different tables or passages of the source.
Assays:
Adult cats = test: Nasal airway resistance (NAR) after aerosolized Compound 48/80 in anesthetized cats; type: in vivo
Source text: Adult cats are anesthetized with intraperitoneal injections of sodium pentobarbital. The right femoral artery and vein are cannulated for measurement of blood pressure with a pressure transducer, and for the administration of drugs. The animals are paralyzed with intravenous gallamine triethiodide and subsequently mechanically ventilated with room air, using an animal ventilator. After isolation of the cervical […], a cuffed endotracheal tube is advanced rostrally into the posterior nasopharynx and inflated to form an air-tight seal, allowing continuous measurement of pressure changes within the nasal cavity. The right nasal airway is occluded with dental impression compound, and humidified air is passed through the left nasal airway at about 1.7 liters per minute. By means of pressure transducers, nasal airway pressure and insufflation pressure can be derived and electronically recorded.
Nasal airway resistance (NAR) is determined by dividing the pressure within the nasal cavity (expressed in centimeters of water) by the air flow rate (expressed in liters per minute). Measurements with 18 subject animals yield an average baseline NAR of 2.6.
The known histamine releaser "Compound 48/80" (the condensation product of N-methyl-p-methoxyphenethylamine with formaldehyde, sold by Sigma Chemical Company, St. Louis, Missouri, USA), as a 1.0 percent solution in 0.9 percent aqueous saline solution, is aerosolized into the air stream for 2 minutes to induce an increased NAR. This effect is used to study the decongestant effects of various test substances, administered to the animals intravenously 10 minutes prior to the introduction of Compound 48/80. These substances include 0.9 percent aqueous saline (normal saline "Vehicle"), phenylpropanolamine hydrochloride at 1.0 mg/Kg of the free drug, thioperamide maleate at 10 mg/Kg of the free drug and chlorpheniramine maleate at 0.8 mg/Kg of the free drug, all of the drug compounds being in solution in 0.9 percent aqueous saline.
The experiment of the preceding example is repeated, but the intravenous drugs are varying amounts of thioperamide (administered as the maleate), in solution together with a constant 0.8 mg/Kg of chlorpheniramine ("CPA," administered as the maleate).
The experiment of preceding Example 1 is repeated, but the intravenous drug administered is clobenpropit in varying amounts, either alone or in solution together with a constant 0.8 mg/Kg of chlorpheniramine ("CPA," administered as the maleate).
To test the statement in U.S. Patent 5,217,986 that verongamine itself has decongestant activity, an experiment similar to that of preceding Example 1, but with a different vehicle, is conducted. The following results are obtained:
The experiment of preceding Example 3 is conducted, using loratadine as the antihistaminic compound at 3 mg/Kg, administered in a solution ("Vehicle") which is 30 percent Dimethylsulfoxide, 40 percent Ethanol and 30 percent normal saline, and using thioperamide as the H3 receptor antagonist at 10 mg/Kg.

histamine H3 receptor = biological target: T1, histamine H3 receptor (Cavia porcellus, UniProt Q9JI35); test: Guinea pig brain membrane binding assay (displacement of radiolabeled N-alpha-methylhistamine, Korte et al.)
T1 construct: determined by a guinea pig brain membrane assay; from tissue; host or cells: guinea pig brain membranes
T1 sequence (Q9JI35 whole entry): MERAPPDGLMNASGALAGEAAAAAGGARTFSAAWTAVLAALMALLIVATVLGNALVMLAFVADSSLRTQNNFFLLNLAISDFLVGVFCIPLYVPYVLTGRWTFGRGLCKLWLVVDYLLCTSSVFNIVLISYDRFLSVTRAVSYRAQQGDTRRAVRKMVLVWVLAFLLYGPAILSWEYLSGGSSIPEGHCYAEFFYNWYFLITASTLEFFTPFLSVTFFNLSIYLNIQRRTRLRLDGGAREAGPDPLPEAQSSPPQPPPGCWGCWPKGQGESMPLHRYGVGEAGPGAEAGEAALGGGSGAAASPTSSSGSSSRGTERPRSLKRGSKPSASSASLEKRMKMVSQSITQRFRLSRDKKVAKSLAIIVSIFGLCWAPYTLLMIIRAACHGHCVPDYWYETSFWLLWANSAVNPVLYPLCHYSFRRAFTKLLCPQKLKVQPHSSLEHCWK
Source text: A particularly useful screening assay measures binding to sites in guinea pig brain membranes. This test is described in detail by Korte et al., "Characterization and Tissue Distribution of H3 Histamine Receptors in Guinea Pigs by N^α -Methylhistamine," in Biochemical and Biophysical Research Communications, Vol. 168, pages 979-986 (1990), and quantifies the displacement of bound radiolabeled N" - methylhistamine from tissues by candidate compounds. Results are expressed as "Ki" values, in nanoMolar (nM) units, which values can be considered as being dissociation constants for the H3 antagonist on the H3 receptor system, or an index of antagonist affinity for the receptor. The present inventors have evidence that decongestant activity in their invention for a given H3 antagonist concentration can be predicted to increase as the Ki value obtained from the assay for an antagonist decreases. In general, Ki values less than about 200 nM are considered necessary for an agent to be useful as an H3 antagonist in the invention.
The affinity of various histamine H3 receptor antagonists for binding sites is determined by a guinea pig brain membrane assay, according to the procedure of Korte et al., Biochemical and Biophysical Research Communications, Vol. 168, pages 979-986 (1990).

[1] = Example 1, i.v. 10 minutes prior to Compound 48/80, single drugs in 0.9 percent saline: thioperamide 10 mg/Kg, chlorpheniramine 0.8 mg/Kg, phenylpropanolamine 1.0 mg/Kg, NAR = cm of water / liters per minute, Vehicle 9.1

Compound | NAR (Adult cats; [1]) | Ki (histamine H3 receptor) | further results
CN(C)CCC(c1ccc(Cl)cc1)c1ccccn1 (stereo not drawn) [Chlorpheniramine, chlorpheniramine] | 6.0 |  | 
NC(=NCc1ccc(Cl)cc1)SCCCc1cnc[nH]1 [Clobenpropit, clobenpropit] |  | 0.1 nM | NAR (Adult cats; Example 3, Clobenpropit 1.0 mg/Kg alone i.v., Vehicle 9.1): 8.5
CCOC(=O)N1CCC(=C2c3ccc(Cl)cc3CCc3cccnc32)CC1 [Loratadine, loratadine] |  |  | NAR (Adult cats; Example 6, loratadine 3 mg/Kg, thioperamide 10 mg/Kg, vehicle 30 percent Dimethylsulfoxide, 40 percent Ethanol, 30 percent normal saline, Vehicle 12.6): 10.2
CC(N)C(O)c1ccccc1 (stereo not drawn) [Phenylpropanolamine, phenylpropanolamine] | 2.9 |  | 
S=C(NC1CCCCC1)N1CCC(c2cnc[nH]2)CC1 [Thioperamide, thioperamide] | 6.7 | 12 nM | 
COc1ccc(C/C(=N\O)C(=O)NCCc2c[nH]cn2)cc1Br [Verongamine, verongamine] |  |  | NAR (Adult cats; Example 5, Verongamine 10 mg/Kg, different vehicle, Vehicle 7.8): 7.3; Ki (histamine H3 receptor; guinea pig brain membranes, read-out: Ki): 280 nM

Reference: patent EP0920315B1, “TREATMENT OF UPPER AIRWAY ALLERGIC RESPONSES WITH A COMBINATION OF HISTAMINE RECEPTOR ANTAGONISTS” (SCHERING CORPORATION, priority 1996, dated 1998)
